Experimental data as given in patent US10189782B2, “Derivatives of indole for the treatment of cancer, viral infections and lung diseases” (BIOKINESIS, priority 2012, dated 2019).
Where two headings read alike, the source gives them in different places. Values belong to the compound of their own block, whether it stands above or below them.

What was measured:
K562 cells = experiment: Cytotoxicity on human cancer cells (WST-1), K562; type: cell-based; details: WST-1 on D4, read-out: K562 IC50
Experimental: (§1) Evaluation of Cytotoxicity Effects on Human Cancer Cells
(§2) The effects of the compounds of the invention on the viability of human cancer cells were studied on various human cancer cell lines of differing tissue origins (A549, NCI-H460: lung cancer; MDA-MB-231: breast cancer; HCT-116, HT-29: colon cancer; MIA-PaCa-2: pancreatic cancer; K562: leukaemia). All cell lines were obtained from ATCC or ECACC. Cells were cultured in the culture media described below, under a 37° C., 5% CO2 humidified atmosphere, according to a standard operating procedure.
(§3) On D0, the cells were plated in 90 μl in 96 wells plates at densities ranging from 500 to 5,000 cells per well.
(§4) Following addition of the test substance the cells were protected from light. The solvents (DMSO and specific control solvent were added at the maximal concentration: 10 μl/well (3 wells/condition)).
(§5) On D4, the Cell Proliferation Reagent WST-1 was added to each well (10 μl/well), according to a standard operating procedure. The cells were then incubated for 30 min to 4 h at 37° C.-5% CO2. After these incubations, the 96-well plates were shaken thoroughly for 1 min with Multiskan® EX apparatus (Thermo Labsystems, France). The absorbence was measured at 450 nm, the reference wavelength being 620 nm. The analysis of the results was performed with the Ascent software 2.6 (Thermo Labsystems, France), Microsoft Excel 2003 and GraphPad Prism 4.03 softwares to give the concentration of the compounds that induces the death of 50% of the cells (IC50).

[1] = Stability studies in human plasma; type: in vitro ADME; details: for Remaining compound 63 (%) (mean ± SEM, n = 2): Human plasma, 2 μM, 37° C.
Experimental: (§6) Stability Studies in Mouse or Human Plasma The study was to evaluate the stability of the disclosed compounds after incubation in mouse or human plasma and to measure the metabolites formed. For the disclosed compound, a stock solution was prepared at 200 μM in DMSO. This solution was then 100-fold diluted in 1 ml of mouse or human plasma in order to obtain the required concentration of 2 μM. One aliquot of 100 μl was taken (TO) and the remaining solution was incubated at 37° C. in water bath for 60 min, 120 min and 240 min. At the end of each incubation time 100 μl of plasma was taken, 100 μl of acetonitrile containing 0.1% of formic acid were added to each aliquot in order to stop the enzymatic reaction and to precipitate the proteins. Samples was vortexed/mixed and centrifuged 5 min at 16434.6 g (=14000 rpm) (4° C.). After centrifugation, the clear supernatant (at least 150 μl) was transferred into 1.2 ml HPLC glass vials and sealed. Samples were placed into the refrigerated autosampler and 20 μl were injected into a HPLC-MS/MS. The results are expressed with the percentage of test substance remaining by comparing area under specific chromatographic peak of test samples after incubation with area under specific chromatographic peak at TO (Tables 7 and 8 and FIGS. 1 and 2).

[2] = Stability studies in mouse plasma; type: in vitro ADME; details: for Remaining compound 63 (%) (mean ± SEM, n = 2): Mouse plasma, 2 μM, 37° C.
Experimental: as §6

[3] = target: T1, Human recombinant MKlp2 motor domain1-519, His tagged (Homo sapiens, UniProt O95235); experiment: Microtubule stimulated ATPase activity of the MKlp2 motor domain (Kinesin ELIPA Assay Kit); type: biochemical; details: read-out: MKIp2 IC50
T1 construct: Human recombinant MKlp2 motor domain1-519, His tagged; His; purchased Cytoskeleton MP05
T1 sequence (O95235 1-519): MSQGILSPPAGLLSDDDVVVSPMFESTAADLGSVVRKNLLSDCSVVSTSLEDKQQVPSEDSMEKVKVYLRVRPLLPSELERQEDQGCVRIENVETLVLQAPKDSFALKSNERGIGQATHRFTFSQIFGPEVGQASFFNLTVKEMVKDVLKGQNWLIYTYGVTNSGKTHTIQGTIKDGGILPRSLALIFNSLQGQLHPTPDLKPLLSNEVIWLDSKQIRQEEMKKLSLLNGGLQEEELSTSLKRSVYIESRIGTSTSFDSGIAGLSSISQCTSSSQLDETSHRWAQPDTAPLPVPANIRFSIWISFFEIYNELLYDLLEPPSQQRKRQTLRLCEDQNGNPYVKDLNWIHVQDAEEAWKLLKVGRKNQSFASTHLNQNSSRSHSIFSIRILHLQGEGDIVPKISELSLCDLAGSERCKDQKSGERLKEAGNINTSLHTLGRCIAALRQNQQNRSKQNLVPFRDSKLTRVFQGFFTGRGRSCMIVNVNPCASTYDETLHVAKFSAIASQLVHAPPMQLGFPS
Outline: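 Microtubule-stimulated ATPase at 22° C, with free phosphate followed in real time by MESG/PNP coupled absorbance at 360 nm. Motor mix in Pipes-NaOH pH 7.0, MgCl2, 30 μM Tx with porcine brain microtubules; reaction started with 5 mM ATP stock at 20% of volume. Kinetic read: 21 readings, 30 s apart.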

HCT-116 = experiment: Cytotoxicity on human cancer cells (WST-1), HCT-116; type: cell-based; details: HCT-116 colon cancer cells, WST-1 on D4
Experimental: as §1, §2
HCT-116: Mc Coy's 5a+10% FBS+0.5 mM Ultraglutamine
as §3, §4
(§7) On D4, the Cell Proliferation Reagent WST-1 was added to each well (10 μl/well), according to a standard operating procedure. The cells were then incubated for 30 min to 4 h at 37° C.-5% CO2. After these incubations, the 96-well plates were shaken thoroughly for 1 min with Multiskan® EX apparatus (Thermo Labsystems, France). The absorbence was measured at 450 nm, the reference wavelength being 620 nm. […]

NCI-H460 = experiment: Cytotoxicity on human cancer cells (WST-1), NCI-H460; type: cell-based; details: NCI-H460 lung cancer cells, WST-1 on D4, read-out: IC50 (μM) NCIH460
Experimental: as §1, §2
NCI-H460: RPMI 1640+10% FBS+10 mM HEPES+1 mM Sodium pyruvate+2.5 g/l glucose
as §3, §4, §7

[4] = test system: human colon carcinoma HCT-116 xenografts; experiment: Anti-tumor activity in nude mice bearing subcutaneous human colon carcinoma HCT-116 xenografts; type: in vivo
Experimental: The effects of one compound of the invention were studied on the tumor growth of human cancer cells in nude mice. […] The induction in nude mice was realized by subcutaneous injection in the right flank of each mouse of 10×10^6 HCT-116 cells in 200 μl serum-free medium. When the tumor volume reached 130 mm^3, mice were randomized in to 3 groups (10 mice/group).
Mice of group 2 were treated by intraperitoneal injection of cisplatin (diluted in NaCl 0.9%) at 4 mg/kg according to the treatment schedule 1Q3Dx3.
The body weight and tumor volume of mice were recorded twice a week until the end of the experiment.

MDA-MB-231 = experiment: Cytotoxicity on human cancer cells (WST-1), MDA-MB-231; type: cell-based; details: MDA-MB-231 breast cancer cells, WST-1 on D4
Experimental: as §1, §2, §3, §4, §5

MIA-PaCa-2 = experiment: Cytotoxicity on human cancer cells (WST-1), MIA-PaCa-2; type: cell-based; details: MIA-PaCa-2 pancreatic cancer cells, WST-1 on D4
Experimental: as §1, §2, §3, §4, §5

[5] = test system: human large lung carcinoma NCI-H460 xenografts; experiment: Anti-tumor activity in nude mice bearing subcutaneous human large cell lung carcinoma NCI-H460 xenografts; type: in vivo
Experimental: In-Vivo Evaluation of Anti-Tumor Activity of Compound 38 in Nude Mice Bearing Subcutaneous Human Large Cell Lung Carcinoma NCI-11460 Xenografts Protocol:
The effects of one compound of the invention were studied on the tumor growth of human cancer cells in nude mice. The human large lung carcinoma NCI-H460 cell line was obtained from ATCC. The induction in nude mice was realized by subcutaneous injection in the right flank of each mouse with 5×10^6 NCI-H460 cells in 200 μl serum-free medium. When the tumor volume reached 80 mm^3, mice were randomized in 2 groups (10 mice/group).
Mice of group 1 were treated by intraperitoneal injection of vehicle (solutol HS15 at 38% in NaCl 0.9%) according to the treatment schedule 1Q1Dx17.
Mice of group 2 were treated by intraperitoneal injection of compound 38 (diluted in solutol HS15 at 38% in NaCl 0.9%) at 37.5 mg/kg according to the treatment schedule 1Q1Dx17.
The tumor volume was recorded twice a week until the end of the experiment.

A549 = experiment: Cytotoxicity on human cancer cells (WST-1), A549; type: cell-based; details: A549 lung cancer cells, WST-1 on D4
Experimental: as §1, §2, §3, §4, §7

HT-29 = experiment: Cytotoxicity on human cancer cells (WST-1), HT-29; type: cell-based; details: HT-29 colon cancer cells, WST-1 on D4
Experimental: as §1, §2
HT-29: Mc Coy's 5a+10% FBS+0.5 mM Ultraglutamine
as §3, §4, §7

[6] = HCT-116 xenograft nude mice, i.p., Cisplatin 4 mg/kg, Cpd 38 37.5 mg/kg, starting MBW 21 g
[7] = NCI-H460 xenograft nude mice, i.p. 37.5 mg/kg 1Q1Dx17, starting MBW 21 g

Remaining compound 63 (%) (mean ± SEM, n = 2) ([1]; incubation time 0 min): 100.0 ± 0.0%
Remaining compound 63 (%) (mean ± SEM, n = 2) ([1]; incubation time 60 min): 49.2 ± 5.1%
Remaining compound 63 (%) (mean ± SEM, n = 2) ([1]; incubation time 120 min): 27.2 ± 5.4%
Remaining compound 63 (%) (mean ± SEM, n = 2) ([1]; incubation time 240 min): 21.2 ± 11.2%
half-life at 2 μM ([1]; human, plasma): ~60 min
Remaining compound 63 (%) (mean ± SEM, n = 2) ([2]; incubation time 0 min): 100.0 ± 0.0%
Remaining compound 63 (%) (mean ± SEM, n = 2) ([2]; incubation time 60 min): 9.0 ± 0.8%
Remaining compound 63 (%) (mean ± SEM, n = 2) ([2]; incubation time 120 min): 10.7 ± 8.7%
Remaining compound 63 (%) (mean ± SEM, n = 2) ([2]; incubation time 240 min): 4.9 ± 0.5%
half-life at 2 μM ([2]; mouse, plasma): ~33 min
IC50 ([3]; Table 6 (prodrugs, formula II)): 10600 nM
SMILES: COc1ccc(C#N)cc1/C=C(\C#N)c1cn(C(=O)CN(C)C)c2ccc(Br)cc12 [Example 63]
IC50 (K562 cells; Table 6 (prodrugs, formula II), K562 cells): 40 nM

SMILES: COc1ccc(C#N)cc1/C=C(\C#N)c1c[nH]c2ccc(Br)cc12 [Example 38, (Z)-3-(2-(5-bromo-1H-indol-3-yl)-2-cyanovinyl)-4-methoxybenzonitrile]
IC50 (K562 cells; Table 4, K562 leukaemia cells): 30 nM
IC50 (HCT-116): 0.06 µM
IC50 (NCI-H460): 0.04 µM
Antitumor activity (tumor volume, FIG. 3) ([4]; HCT-116 xenograft bearing nude mice, i.p., cisplatin 4 mg/kg, compound 38 37.5 mg/kg): Antitumor activity was observed
MBWC D 0-D 4 (mean body weight change) [4, 6]: -1.04 g
MBWC D 0-D 7 (mean body weight change) [4, 6]: -0.76 g
MBWC D 0-D 10 (mean body weight change) [4, 6]: -1.08 g
MBWC D 0-D 14 (mean body weight change) [4, 6]: -1.57 g
MBWC D 0-D 17 (mean body weight change) [4, 6]: -1.58 g
MBWC D 0-D 21 (mean body weight change) [4, 6]: -1.43 g
MBWC D 0-D 24 (mean body weight change) [4, 6]: -1.83 g
MBWC D 0-D 28 (mean body weight change) [4, 6]: -2.54 g
Tolerability of treatment ([4]; mouse, in vivo, ip, 37.5 mg/kg): well tolerated
IC50 ([3]; Table 3, 22° C.): 200 nM
IC50 (MDA-MB-231): 0.07 µM
IC50 (MIA-PaCa-2): 0.04 µM
Antitumor activity (tumor volume, FIG. 4) ([5]; NCI-H460 xenograft bearing nude mice, 37.5 mg/kg i.p.): Antitumor activity was observed
MBWC D 0-D 3 (mean body weight change) [5, 7]: -0.96 g
MBWC D 0-D 4 (mean body weight change) [5, 7]: -1.76 g
MBWC D 0-D 7 (mean body weight change) [5, 7]: -1.82 g
MBWC D 0-D 10 (mean body weight change) [5, 7]: -2.12 g
MBWC D 0-D 14 (mean body weight change) [5, 7]: -1.83 g
MBWC D 0-D 17 (mean body weight change) [5, 7]: -1.55 g
Tolerability of treatment ([5]; nude mice bearing NCI-H460 xenograft, 37.5 mg/kg i.p.): well tolerated

IC50 ([3]; Table 3, 22° C.): 50 nM
SMILES: COc1ccncc1/C=C(\C#N)c1c[nH]c2ccc(Br)cc12 [Example 5, (Z)-2-(5-bromo-1H-indol-3-yl)-3-(4-methoxypyridin-3-yl)acrylonitrile]
IC50 (K562 cells; Table 4, K562 leukaemia cells): 800 nM
IC50 (HCT-116): 0.7 µM
IC50 (NCI-H460): 0.9 µM
IC50 (MDA-MB-231): 1.7 µM
IC50 (MIA-PaCa-2): 0.7 µM

IC50 ([3]; Table 3, 22° C.): 200 nM
SMILES: CN(C)c1ccc(C#N)cc1/C=C(\C#N)c1c[nH]c2ccc(Br)cc12 [Example 39, (Z)-3-(2-(5-bromo-1H-indol-3-yl)-2-cyanovinyl)-4-(dimethylamino)benzonitrile]
IC50 (K562 cells; Table 4, K562 leukaemia cells): 600 nM
IC50 (A549): 0.5 µM
IC50 (MDA-MB-231): 0.3 µM
IC50 (MIA-PaCa-2): 0.2 µM
IC50 (HT-29): 0.3 µM
